The OligoGym collection
HELM strings list units from the 5' end as sugar, base in round brackets, then linkage (d deoxyribose, r ribose, m 2'-O-methyl, p phosphodiester). Strings are as the collection lists them; they lack the last nucleoside at the 3' end of the tested compound. [moe] = 2'-O-(2-methoxyethyl) (MOE); [sp] = phosphorothioate linkage; [m5C] = 5-methylcytosine

The substances below were run against LRRK2 (assay: mouse, dose not given). Settings: ASO.

3 h FOB score, 0 score 0-7:
RNA1{[moe](G)[sp].[moe]([m5C])p.[moe]([m5C])p.[moe]([m5C])p.[moe](A)[sp].d(T)[sp].d(T)[sp].d(T)[sp].d([m5C])[sp].d(T)[sp].d(T)[sp].d([m5C])[sp].d(A)[sp].d(A)[sp].d([m5C])[sp].[moe](A)p.[moe](G)p.[moe](A)[sp].[moe](G)}$$$$ (last 3' nucleoside missing)
RNA1{[moe](G)[sp].[moe](T)p.[moe]([m5C])p.[moe](A)p.[moe](A)[sp].d(A)[sp].d([m5C])[sp].d(T)[sp].d([m5C])[sp].d(T)[sp].d(T)[sp].d([m5C])[sp].d(A)[sp].d(G)[sp].d(A)[sp].[moe](G)p.[moe](T)p.[moe](T)[sp].[moe](T)}$$$$ (last 3' nucleoside missing)
RNA1{[moe](G)[sp].[moe](T)p.[moe]([m5C])p.[moe](A)p.[moe]([m5C])[sp].d([m5C])[sp].d(T)[sp].d(T)[sp].d(T)[sp].d([m5C])[sp].d([m5C])[sp].d([m5C])[sp].d(A)[sp].d(A)[sp].d(T)[sp].[moe](G)p.[moe]([m5C])p.[moe](T)[sp].[moe](T)}$$$$ (last 3' nucleoside missing)
RNA1{[moe](A)[sp].[moe]([m5C])p.[moe](G)p.[moe]([m5C])p.[moe](A)[sp].d([m5C])[sp].d(T)[sp].d(T)[sp].d(A)[sp].d(A)[sp].d([m5C])[sp].d(A)[sp].d(A)[sp].d(T)[sp].d(A)[sp].[moe](T)p.[moe]([m5C])p.[moe](A)[sp].[moe](T)}$$$$ (last 3' nucleoside missing)

3 h FOB score, 6 score 0-7:
RNA1{[moe](G)[sp].[moe]([m5C])p.[moe]([m5C])[sp].[moe](A)[sp].[moe]([m5C])[sp].d(T)[sp].d([m5C])[sp].d(A)[sp].d(T)[sp].d(G)[sp].d(A)[sp].d(G)[sp].d(G)[sp].d(A)[sp].d([m5C])[sp].[moe](T)[sp].[moe](T)p.[moe]([m5C])[sp].[moe]([m5C])}$$$$ (last 3' nucleoside missing)
RNA1{[moe](A)[sp].[moe](T)p.[moe]([m5C])[sp].[moe](A)[sp].[moe](T)[sp].d(T)[sp].d(G)[sp].d([m5C])[sp].d(T)[sp].d(G)[sp].d([m5C])[sp].d(T)[sp].d([m5C])[sp].d(A)[sp].d(T)[sp].[moe](A)[sp].[moe](T)p.[moe]([m5C])[sp].[moe](T)}$$$$ (last 3' nucleoside missing)
RNA1{[moe](A)[sp].[moe](G)p.[moe](G)p.[moe](A)p.[moe](G)[sp].d(A)[sp].d(A)[sp].d(T)[sp].d(G)[sp].d(T)[sp].d(A)[sp].d(T)[sp].d(A)[sp].d(T)[sp].d(G)[sp].[moe]([m5C])p.[moe](T)p.[moe](T)[sp].[moe]([m5C])}$$$$ (last 3' nucleoside missing)

3 h FOB score, 5 score 0-7:
RNA1{[moe](A)[sp].[moe](T)p.[moe](T)[sp].[moe]([m5C])[sp].[moe](G)[sp].d(G)[sp].d(T)[sp].d(T)[sp].d(A)[sp].d(T)[sp].d(A)[sp].d(A)[sp].d(G)[sp].d(G)[sp].d([m5C])[sp].[moe](A)[sp].[moe]([m5C])p.[moe](A)[sp].[moe](G)}$$$$ (last 3' nucleoside missing)

3 h FOB score, 3 score 0-7:
RNA1{[moe]([m5C])[sp].[moe](T)p.[moe](G)[sp].[moe](T)[sp].[moe]([m5C])[sp].d(A)[sp].d([m5C])[sp].d([m5C])[sp].d(T)[sp].d(T)[sp].d(T)[sp].d([m5C])[sp].d([m5C])[sp].d([m5C])[sp].d(A)[sp].[moe](A)[sp].[moe](T)p.[moe](G)[sp].[moe]([m5C])}$$$$ (last 3' nucleoside missing)
RNA1{[moe](A)[sp].[moe](A)p.[moe](T)[sp].[moe](G)[sp].[moe](A)[sp].d(G)[sp].d(T)[sp].d(G)[sp].d([m5C])[sp].d(A)[sp].d(T)[sp].d(G)[sp].d(G)[sp].d([m5C])[sp].d(A)[sp].[moe](T)[sp].[moe]([m5C])p.[moe](A)[sp].[moe](A)}$$$$ (last 3' nucleoside missing)
RNA1{[moe](T)[sp].[moe]([m5C])p.[moe](T)p.[moe](T)p.[moe]([m5C])[sp].d(A)[sp].d(G)[sp].d(T)[sp].d(T)[sp].d([m5C])[sp].d([m5C])[sp].d(T)[sp].d(T)[sp].d([m5C])[sp].d(A)[sp].[moe](G)p.[moe](T)p.[moe]([m5C])[sp].[moe](T)}$$$$ (last 3' nucleoside missing)
RNA1{[moe](T)[sp].[moe](T)p.[moe](G)[sp].[moe]([m5C])[sp].[moe](T)[sp].d(G)[sp].d([m5C])[sp].d(T)[sp].d([m5C])[sp].d(A)[sp].d(T)[sp].d(A)[sp].d(T)[sp].d([m5C])[sp].d(T)[sp].[moe](A)[sp].[moe](A)p.[moe](A)[sp].[moe](G)}$$$$ (last 3' nucleoside missing)

3 h FOB score, 2 score 0-7:
RNA1{[moe](A)[sp].[moe](T)p.[moe](G)[sp].[moe]([m5C])[sp].[moe](T)[sp].d(T)[sp].d(T)[sp].d([m5C])[sp].d(A)[sp].d(T)[sp].d(A)[sp].d(G)[sp].d([m5C])[sp].d(T)[sp].d(T)[sp].[moe]([m5C])[sp].[moe]([m5C])p.[moe](A)[sp].[moe]([m5C])}$$$$ (last 3' nucleoside missing)
RNA1{[moe](G)[sp].[moe](A)p.[moe](A)[sp].[moe]([m5C])[sp].[moe](T)[sp].d(T)[sp].d(T)[sp].d(A)[sp].d(T)[sp].d(A)[sp].d(T)[sp].d(A)[sp].d(T)[sp].d(A)[sp].d(G)[sp].[moe](T)[sp].[moe](T)p.[moe](A)[sp].[moe](T)}$$$$ (last 3' nucleoside missing)
RNA1{[moe](G)[sp].[moe](T)p.[moe](G)p.[moe]([m5C])p.[moe](A)[sp].d(A)[sp].d(G)[sp].d(T)[sp].d([m5C])[sp].d([m5C])[sp].d(A)[sp].d(A)[sp].d(A)[sp].d(T)[sp].d(G)[sp].[moe](T)p.[moe](G)p.[moe](T)[sp].[moe]([m5C])}$$$$ (last 3' nucleoside missing)
RNA1{[moe](G)[sp].[moe](A)p.[moe](G)[sp].[moe](T)[sp].[moe](G)[sp].d([m5C])[sp].d(A)[sp].d(T)[sp].d(G)[sp].d(G)[sp].d([m5C])[sp].d(A)[sp].d(T)[sp].d([m5C])[sp].d(A)[sp].[moe](A)[sp].[moe](A)p.[moe](A)[sp].[moe](A)}$$$$ (last 3' nucleoside missing)
RNA1{[moe](G)[sp].[moe](T)p.[moe](T)[sp].[moe](A)[sp].[moe](A)[sp].d([m5C])[sp].d(G)[sp].d([m5C])[sp].d(A)[sp].d([m5C])[sp].d(T)[sp].d(T)[sp].d(A)[sp].d(A)[sp].d([m5C])[sp].[moe](A)[sp].[moe](A)p.[moe](T)[sp].[moe](A)}$$$$ (last 3' nucleoside missing)

3 h FOB score, 4 score 0-7:
RNA1{[moe](A)[sp].[moe](T)p.[moe](T)[sp].[moe](G)[sp].[moe]([m5C])[sp].d([m5C])[sp].d(A)[sp].d([m5C])[sp].d(T)[sp].d([m5C])[sp].d(A)[sp].d(T)[sp].d(G)[sp].d(A)[sp].d(G)[sp].[moe](G)[sp].[moe](A)p.[moe]([m5C])[sp].[moe](T)}$$$$ (last 3' nucleoside missing)
RNA1{[moe]([m5C])[sp].[moe](T)p.[moe](T)p.[moe]([m5C])p.[moe](A)[sp].d(G)[sp].d(T)[sp].d(T)[sp].d([m5C])[sp].d([m5C])[sp].d(T)[sp].d(T)[sp].d([m5C])[sp].d(A)[sp].d(G)[sp].[moe](T)p.[moe]([m5C])p.[moe](T)[sp].[moe]([m5C])}$$$$ (last 3' nucleoside missing)
RNA1{[moe](A)[sp].[moe](G)p.[moe](G)p.[moe]([m5C])p.[moe](A)[sp].d(T)[sp].d(T)[sp].d(T)[sp].d([m5C])[sp].d(A)[sp].d(T)[sp].d(A)[sp].d(T)[sp].d(A)[sp].d(G)[sp].[moe](T)p.[moe]([m5C])p.[moe](G)[sp].[moe](G)}$$$$ (last 3' nucleoside missing)
RNA1{[moe](T)[sp].[moe](G)p.[moe]([m5C])[sp].[moe](T)[sp].[moe](T)[sp].d(T)[sp].d([m5C])[sp].d(A)[sp].d(T)[sp].d(A)[sp].d(G)[sp].d([m5C])[sp].d(T)[sp].d(T)[sp].d([m5C])[sp].[moe]([m5C])[sp].[moe](A)p.[moe]([m5C])[sp].[moe]([m5C])}$$$$ (last 3' nucleoside missing)

3 h FOB score, 7 score 0-7:
RNA1{[moe](A)[sp].[moe](G)p.[moe](T)p.[moe](T)[sp].[moe]([m5C])[sp].d([m5C])[sp].d(T)[sp].d(T)[sp].d([m5C])[sp].d(A)[sp].d(G)[sp].d(T)[sp].d([m5C])[sp].d(T)[sp].d([m5C])[sp].[moe](A)p.[moe](A)p.[moe](G)[sp].[moe](G)}$$$$ (last 3' nucleoside missing)
RNA1{[moe](T)[sp].[moe](T)p.[moe](T)[sp].[moe]([m5C])[sp].[moe](A)[sp].d(T)[sp].d(T)[sp].d([m5C])[sp].d(G)[sp].d(G)[sp].d(T)[sp].d(T)[sp].d(A)[sp].d(T)[sp].d(A)[sp].[moe](A)[sp].[moe](G)p.[moe](G)[sp].[moe]([m5C])}$$$$ (last 3' nucleoside missing)
RNA1{[moe](T)[sp].[moe]([m5C])p.[moe](A)[sp].[moe](T)[sp].[moe](T)[sp].d([m5C])[sp].d(G)[sp].d(G)[sp].d(T)[sp].d(T)[sp].d(A)[sp].d(T)[sp].d(A)[sp].d(A)[sp].d(G)[sp].[moe](G)[sp].[moe]([m5C])p.[moe](A)[sp].[moe]([m5C])}$$$$ (last 3' nucleoside missing)

3 h FOB score, 2.5 score 0-7:
RNA1{[moe]([m5C])[sp].[moe](T)p.[moe](T)p.[moe](T)p.[moe]([m5C])[sp].d(A)[sp].d([m5C])[sp].d(T)[sp].d([m5C])[sp].d(A)[sp].d(T)[sp].d(A)[sp].d(G)[sp].d(G)[sp].d(G)[sp].[moe](A)p.[moe](A)p.[moe](T)[sp].[moe](G)}$$$$ (last 3' nucleoside missing)
